Assay results reported in patent publication US12565520B2, “Chemically-stabilized allosteric modulators of leucine-rich repeat kinase 2 (LRRK2)” (UNIVERSITY OF GEORGIA RESEARCH FOUNDATION, INC., priority 2020, dated 2026).
“Also recorded” adds a separate entry of the source.

Tests used:
RAW 264.7 cells = assay: ROS production assay (CellROX, zymosan); format: cell-based; settings: 10 μM peptide 9 hours, then Zymosan 50 μg/mL 30 mins
Protocol: ROS production assay. Flow cytometry was used to measure reactive oxygen species (ROS) through fluorescence emission of the CellROX deep red dye (Life Technologies). RAW264.7 cells (ATCC® SC-6003™) were plated at 120,000/well in a 96-well low-adherence tissue culture plate (Costar).

[1] = test system: endogenous LRRK2 kinase activity as Rab10 phosphorylation; assay: Rab10 phosphorylation in untransfected A549 cells; format: cell-based; settings: 10 μM
Text: To test whether disruption of LRRK2 dimerization can also attenuate Rab phosphorylation, a hyperactive LRRK2 mutant (R1441G) and Rab29 were overexpressed in HEK293T cells (Z. Liu et al., LRRK2 phosphorylates membrane-bound Rabs and is activated by GTP-bound Rab7L1 to promote recruitment to the trans-Golgi network. Hum Mol Genet 27, 385-395 (2018); and E. Purlyte et al., Rab29 activation of the Parkinson's disease-associated LRRK2 kinase. The EMBO Journal 37, 1-18 (2018)). Overexpression of Rab29 induces recruitment of LRRK2 to the trans-golgi network (TGN) and activates it there. After 24-hour transfection, cells were then treated with 10 μM peptide for 15 hours. […] To test the effect of the dimerization inhibitors on endogenous LRRK2 function, we performed a similar experiment using non-transfected A549 cells which natively express detectable levels of both LRRK2 and Rab10.

Substance	zymosan induced ROS production (RAW 264.7 cells)	Rab10 phosphorylation by endogenous LRRK2 [1]
COR-domain stapled peptide formed from SEQ ID NO. 16 KGEGEXLLKXWK, X = (S)-2-(4′-pentenyl)alanine; PEG3 linker, FAM or biotin label (hydrocarbon staple; PEG3 linker; FAM or biotin; COR domain peptide; (6)..(6) Xaa is (S)-2-(4′-pentenyl)alanine; (10)..(10) Xaa is (S)-2-(4′-pentenyl)alanine) [LCIP1]	no statistically significant consequence	
Roc-domain stapled peptide formed from SEQ ID NO. 6 DEKQRKAC(Nle)SKITKEXLNKX, X = (S)-2-(4′-pentenyl)alanine; PEG3 linker, FAM or biotin label (DEKQRKACXSKITKEXLNKX; hydrocarbon staple; Nle; PEG3 linker; FAM or biotin; ROC domain petide; (9)..(9) Xaa is norleucine; (16)..(16) Xaa is (S)-2-(4′-pentenyl)alanine; (20)..(20) Xaa is (S)-2-(4′-pentenyl)alanine) [LRIP4]	significant reduction of zymosan induced ROS production to an extent comparable to MLi-2	significant reduction in phosphorylation of Rab10; also recorded: inhibition of Rab10 phosphorylation
